One data set has as its target T1, TGF-β1 (Homo sapiens, UniProt P01137).
T1 construct: host or cells: My-1-Lu cell line (so in the source)
The settings on record: shown previously, WO 00/31135; cited from earlier work.

The test system of the next data set is normal skin. Set-up: species or system mice. The settings on record: mouse, in vivo. The protocol:
In order to test the possible tumor-promoting effect of disitertide, TPA was replaced by a treatment with a topical formulation cream containing disitertide (group 2, consisting of 5 animals) or with vehicle only (group 1, consisting of 5 mice) during the promotion phase of chemical carcinogenesis. Similarly, the possible carcinogenic activity of disitertide was analyzed in a group of 5 mice by repeated applications of disitertide every 2 days for 23 weeks. Since papillomas appear at around 7-8 weeks post-initiation, mice initiated with DMBA and promoted with TPA were further treated with disitertide every 2 days for 4 and 12 weeks (groups 5 and 6, respectively, 10 animals each), in order to test whether disitertide could prevent skin carcinogenesis. Treatment with disitertide started in the same week in which mice were initiated with DMBA (week 0), and applications with this and TPA were performed on alternate days. As a control, a group of mice (group 4, consisting of 5 animals) were treated with vehicle only (control cream) for 12 weeks. Finally, a group of animals with tumors (group 7, consisting of 10 animals) were treated with disitertide every 2 days for 20 weeks from week 12 to week 32 after initiation with DMBA. This group of mice was included in order to test a possible anti-tumor effect of the peptide. […]

The test system of data set [1] is skin tumors in mice initiated with DMBA. Kind of data set: Tumor-promoting effect: TPA replaced by disitertide cream in DMBA-initiated mice. The class given is in vivo, Swiss albino mice. The settings on record: group 2. The protocol:
The tumors were induced on the shaved dorsal skin of mice aged 6-8 weeks through a single topical application of DMBA (32 μg in 200 μl of acetone), followed by treatment twice a week with 12.5 μg of TPA in 200 μl of acetone (10^−4 M) for 12 weeks. In addition, groups of mice were treated with a topical formulation in the form of cream that contained disitertide or not, as specified below. Each week the number of tumors bigger than 2 mm in diameter were recorded in each mouse. At the end of the experiment, the animals were anesthetized and killed (32 weeks after the initiation with DMBA), and the tumors were fixed in 10% formaldehyde and embedded in paraffin for the histological studies.
In order to test the possible tumor-promoting effect of disitertide, TPA was replaced by a treatment with a topical formulation cream containing disitertide (group 2, consisting of 5 animals) or with vehicle only (group 1, consisting of 5 mice) during the promotion phase of chemical carcinogenesis. Similarly, the possible carcinogenic activity of disitertide was analyzed in a group of 5 mice by repeated applications of disitertide every 2 days for 23 weeks. Since papillomas appear at around 7-8 weeks post-initiation, mice initiated with DMBA and promoted with TPA were further treated with disitertide every 2 days for 4 and 12 weeks (groups 5 and 6, respectively, 10 animals each), in order to test whether disitertide could prevent skin carcinogenesis. Treatment with disitertide started in the same week in which mice were initiated with DMBA (week 0), and applications with this and TPA were performed on alternate days. As a control, a group of mice (group 4, consisting of 5 animals) were treated with vehicle only (control cream) for 12 weeks. Finally, a group of animals with tumors (group 7, consisting of 10 animals) were treated with disitertide every 2 days for 20 weeks from week 12 to week 32 after initiation with DMBA. This group of mice was included in order to test a possible anti-tumor effect of the peptide. Disitertide was applied at a dose of 60 μg in 200 μl of the topical formulation as cream, except for mice of group 7 in which the dose of disitertide was increased up to 120 μg (in 400 μl of cream).

Where no end group is shown, it is not given here.

The values that follow come from patent US8658599B2, “Peptide for the prophylactic or therapeutic treatment of skin tumors in initial stages” (Digna Biotech, S.L., priority 2009, dated 2014).

T1 sequence (P01137 279-390 limits assumed, species assumed): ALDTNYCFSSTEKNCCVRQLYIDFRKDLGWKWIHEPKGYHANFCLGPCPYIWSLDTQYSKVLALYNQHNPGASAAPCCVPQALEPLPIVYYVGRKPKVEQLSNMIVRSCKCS

Take “P54: mammal homologue peptide of disitertide, SEQ ID NO: 2, amino acids 731-742 of rat type III receptor of TGF-β1 (TSLDATMIWTMM; P54 peptide)”: the “Capacity to act as TGF-β1 inhibitor” value in the data set with TGF-β1 is “act as TGF-β1 inhibitors”.
As to TSLDASIIWAMMQN [disitertide], the “Effect on normal skin after repeated applications” value in the data set on normal skin was “no deleterious effect on normal skin”. In data set [1] (DMBA initiation, disitertide cream as promoter instead of TPA, 12 weeks, tumors >2 mm, week 10), the “Mean number of tumors per mouse at week 10 post-initiation” value amounted to 0.0. Further, the “Mean number of tumors per mouse at week 14 post-initiation” value in data set [1] (DMBA initiation, disitertide cream as promoter instead of TPA, 12 weeks, tumors >2 mm, week 14) is on record as 0.0. The “Mean number of tumors per mouse at week 25 post-initiation” value in data set [1] (DMBA initiation, disitertide cream as promoter instead of TPA, 12 weeks, tumors >2 mm, week 25) is 0.0. The “Mean number of tumors per mouse at week 32 post-initiation” value in data set [1] (DMBA initiation, disitertide cream as promoter instead of TPA, 12 weeks, tumors >2 mm, week 32) is on record as 0.0. Further, the “Tumor induction when disitertide replaces TPA as promoter” value in data set [1] (DMBA-initiated mice promoted with disitertide cream for 12 weeks) is listed as “no tumors were induced”.
